What all share (assay type): in vivo
Assay [1] concerns mice with diabetes. Description: Tear secretion in mice with diabetes (STZ type 1 diabetes model, diabetes-associated dry eye). The settings on record: intraperitoneal injection 100 mg/kg once a day for 4 days, observed 5 and 7 days, vs normal saline. How it is done: A phenol red cotton thread was used to detect the tear production of mice. One end of the phenol red cotton thread was placed at an inner ⅓ of the conjunctival sac of the lower eyelid, after 20 s, the phenol red cotton thread was taken out, and the length of the cotton thread wetted with tears was measured. The result was shown in FIG. 1 (tear secretion after modeling of mice treated with scopolamine).
Male C57BL/6 mice were selected, a type 1 diabetes model was established by intraperitoneal injection of streptozotocin (STZ) (the establishment method refers to the prior art: Lingling, Yang, Guohu, Di, Xia, & Qi, et al. Substance p promotes diabetic corneal epithelial wound healing through molecular mechanisms mediated via the neurokinin-1 receptor. Diabetes. 2014; 63: 4262-4274.), and the mice with blood glucose value greater than 300 mg/dL were screened for experiments after 1 month. The mice not treated and fed under a normal condition were used as a control, and the experimental mice had no corneal defects and neovascularization or conjunctival damage. The result was shown in FIG. 11 (tear secretion and ocular surface inflammation after modeling of mice with diabetes, tear secretion (left) and ocular surface inflammation (right)). […]

For assay [2], the system named is mice treated with scopolamine (dry eye model). The experiment in a line: Tear secretion (phenol red cotton thread) in scopolamine-induced dry eye model mice. The settings on record: intraperitoneal injection 100 mg/kg once a day from 3rd day after modeling for 4 days, observed 5 and 7 days, vs normal saline.
For assay [3] the test system is unchanged. The experiment in a line: Expression levels of inflammatory factors of the lacrimal gland by qPCR in scopolamine-induced dry eye model mice. The settings on record: intraperitoneal injection 100 mg/kg, 7th day of treatment. As to the method: (§1) Female C57BL/6 mice were selected for the experiment and placed in a perforated cage with a constant fan flow and a humidity <20%. The modeled mice with dry eye were induced by subcutaneous injection of scopolamine (0.5 mg/0.2 ml, 3 times a day) for 7 consecutive days (refer to the following literature: Wu Y, Bu J, Yang Y, et al. Therapeutic effect of MK2 inhibitor on experimental murine dry eye. Invest Ophthalmol Vis Sci. 2017; 58:4898-4907), the mice not treated and fed under a normal condition were used as a control, and the experimental mice had no corneal defects and neovascularization or conjunctival damage.
After 7 days of modeling, the lacrimal glands and the corneas of the mice were taken to extract mRNA. Expression levels of inflammatory factors TNFα, TGFβ1, and IL-1β were detected by qPCR. The result was shown in FIG. 3 (expression levels of inflammatory factors of the lacrimal glands (left) and the corneas (right) 7 days after modeling of mice treated with scopolamine).
After 7 days of the treatment, staining by sodium fluorescein was used to observe damage of a corneal epithelial barrier function. The lacrimal glands of the mice were taken for qPCR detection.
On the 7th day of the treatment, staining by sodium fluorescein was used to observe damage of a corneal epithelial barrier function. The lacrimal glands of the mice were taken for qPCR detection.
(In qPCR the cycle at which signal appears reflects the starting amount.)

Assay [4] has the same test system. Description: Corneal staining by fluorescein sodium in scopolamine-induced dry eye model mice. The settings on record: intraperitoneal injection 100 mg/kg, 7th day of treatment. As to the method: as §1
Staining by fluorescein sodium was used to observe damage of a corneal epithelial barrier function, observation was performed with a slit lamp, and photographing was performed. The result was shown in FIG. 2 (corneal staining by fluorescein sodium 7 days after modeling of mice treated with scopolamine). Compared with the mice in the control group, the mice in the scopolamine group were positive in staining by fluorescein sodium in scopolamine 7 days after modeling.
After 7 days of the treatment, staining by sodium fluorescein was used to observe damage of a corneal epithelial barrier function. The lacrimal glands of the mice were taken for qPCR detection. […]

Take `NCCc1cc(O)c(O)cc1O` [6-hydroxydopamine]: the tear secretion result in assay [1] and in assay [2] was “significantly increase the tear secretion” each time. Moreover, in assay [3], the “expression levels of inflammatory factors TNFα and TGFβ1 of the lacrimal gland” value is “decrease expression levels of inflammatory factors TNFα and TGFβ1”. Also, the “staining of ocular surface by fluorescein sodium” value in assay [4] was “reduce staining of an ocular surface by fluorescein sodium”.

The record behind these values is patent publication US20240216375A1, “USE OF S[…] AND/OR ALPHA 1-ADRENERGIC RECEPTOR INHIBITOR IN PREPARING MEDICINE FOR TREATING DRY EYES” (Eye Institute of Shandong First Medical University …, priority 2022, published 2024).
